The record followed here is patent US8349870B2 (priority 2008, dated 2013).

Where two headings read alike, the source gives them in different places.

Format in all cases: in vivo
One assay deals with Plasmopara viticola. The experiment in a line: Test A: grape downy mildew, spray after inoculation, visual disease rating (% disease control). The conditions noted are these: 100 = 100% disease control, 0 = no control. An excerpt:
General protocol for preparing test suspensions for Test A-C: The test compounds were first dissolved in acetone in an amount equal to 3% of the final volume and then suspended at the desired concentration (in ppm) in acetone and purified water (50/50 mix by volume) containing 250 ppm of the surfactant Trem® 014 (polyhydric alcohol esters). The resulting test suspensions were then used in Tests A-C. Spraying a 200 ppm test suspension to the point of run-off on the test plants was equivalent to a rate of 500 g/ha.
Grape seedlings were inoculated with a spore suspension of Plasmopara viticola (the causal agent of grape downy mildew) and incubated in a saturated atmosphere at 20° C. for 24 h. After a short drying period, the test suspension was sprayed to the point of run-off on the grape seedlings, which were then moved to a growth chamber at 20° C. for 5 days, after which time the grape seedling were placed back into a saturated atmosphere at 20° C. for 24 h. Upon removal, visual disease ratings were made.
Results for Tests A-C are given in Table A. In the table, a rating of 100 indicates 100% disease control and a rating of 0 indicates no disease control (relative to the controls). A dash (-) indicates no test results, “*” indicates compound was tested at 40 ppm and “**” indicates compound was tested at 10 ppm.

The subject of assay [1] is Phytophthora infestans. The conditions noted are these: tomato late blight, sprayed 17 h after inoculation.
Assay [2] deals with Phytophthora infestans. The conditions noted are these: tomato late blight, sprayed the day before inoculation.
Where [3] appears, read: Cmpd No. unmarked, rate not stated in table (b1197 mentions a 200 ppm test suspension).

For the compound `O=C(C(O)Cc1ccccc1)N1CCC(c2nc(C3=NOC(c4c(F)cccc4F)C3)cs2)CC1` (mixture of isomers) [compound 50], the “Test A rating (% disease control)” value with Plasmopara viticola ("*" compound tested at 40 ppm) stood at 0%. The “Test C rating (% disease control)” value in the assay with Phytophthora infestans [1] ("*" compound tested at 40 ppm) stood at 0%. For the same compound, the “Test B rating (% disease control)” value with Phytophthora infestans [2] ("*" compound tested at 40 ppm) is 87%.

`Cc1ccc(C)c(C(=O)C(=O)N2CCC(c3nc(C4=NOC(c5c(F)cccc5F)C4)cs3)CC2)c1` (stereo not drawn) [compound 52]: in the assay on Plasmopara viticola ("*" compound tested at 40 ppm), the “Test A rating (% disease control)” value came to 100%. Also, the “Test C rating (% disease control)” value with Phytophthora infestans [1] ("*" compound tested at 40 ppm) was 96%. For the same compound, the “Test B rating (% disease control)” value in the assay on Phytophthora infestans [2] ("*" compound tested at 40 ppm) worked out at 100%.

As for `O=C(C(=O)N1CCC(c2nc(C3=NOC(c4ccccc4F)C3)cs2)CC1)c1ccccc1` (stereo not drawn) [compound 45], the “Test A rating (% disease control)” value with Plasmopara viticola ("*" compound tested at 40 ppm) is 0%. In the assay on Phytophthora infestans [1] ("*" compound tested at 40 ppm), the “Test C rating (% disease control)” value is reported as 0%. Moreover, the “Test B rating (% disease control)” value with Phytophthora infestans [2] ("*" compound tested at 40 ppm) stood at 0%.

Take `O=C(C(=O)N1CCC(c2nc(C3=NOC(c4ccccc4F)C3)cs2)CC1)c1cccs1` (stereo not drawn) [compound 46]: in the assay on Plasmopara viticola ("*" compound tested at 40 ppm), the “Test A rating (% disease control)” value was determined as 0%. Besides, the “Test C rating (% disease control)” value in the assay with Phytophthora infestans [1] ("*" compound tested at 40 ppm) is on record as 0%. In addition, the “Test B rating (% disease control)” value in the assay on Phytophthora infestans [2] ("*" compound tested at 40 ppm) is 0%.

With `CCC(C)NC(=O)N1CCC(c2nc(C3=NOC(c4ccccc4)C3)cs2)CC1` (stereo not drawn) [compound 17], the “Test A rating (% disease control)” value in the assay on Plasmopara viticola ("*" compound tested at 40 ppm) was found to be 86%. For the same compound, the “Test C rating (% disease control)” value in the assay with Phytophthora infestans [1] ("*" compound tested at 40 ppm) was found to be 95%. In addition, in the assay on Phytophthora infestans [2] ("*" compound tested at 40 ppm), the “Test B rating (% disease control)” value is recorded as 100%.

Take `CN(C)C(=O)N1CCC(c2nc(C3=NOC(c4ccccc4)C3)cs2)CC1` (stereo not drawn) [compound 11]: the “Test A rating (% disease control)” value with Plasmopara viticola (setting [3]) was determined as 0%. In addition, the “Test C rating (% disease control)” value in the assay with Phytophthora infestans [1] (setting [3]) stood at 0%. Moreover, the “Test B rating (% disease control)” value with Phytophthora infestans [2] (setting [3]) is recorded as 0%.

Regarding “5-chloro-1-[4-[4-[4,5-dihydro-5-(2-fluorophenyl)-3-isoxazolyl]-2-thiazolyl]-1-piperidinyl-1-pentanone [Example 7]”, the “Test A rating (% disease control)” value in the assay on Plasmopara viticola (setting [3]) is given as 98%. Besides, the “Test C rating (% disease control)” value in the assay with Phytophthora infestans [1] (setting [3]) was found to be 71%. For the same compound, the “Test B rating (% disease control)” value in the assay with Phytophthora infestans [2] (setting [3]) was 100%.
